Key:
[1] = system: anti alpha-synuclein CHO cells; assay: Transition of anti alpha-synuclein CHO cells from glutamine-containing to glutamine-free media: growth rate and viability
Protocol: Anti alpha-synuclein cells were transferred from glutamine-containing media to glutamine-free media using a 1:5 split ratio on Day 0. Cells were cultured at 36° C., 5% CO2 in 500 mL shake flasks and passaged every 4 days using glutamine-free media+10 mg/L insulin (first bar in FIG. 7A, diamond in FIG. 7B), glutamine-free media+10 mg/L insulin, 100 μM hypoxanthine, 16 μM thymidine (second bar in FIG. 7A, square in FIG. 7B), glutamine-free media+10 mg/L insulin, 500 μM adenosine (third bar in FIG. 7A, triangle in FIG. 7B), or glutamine-free media+10 mg/L insulin, 100 μM adenosine (fourth bar in FIG. 7A, circle in FIG. 7B), using a 1:5 split ratio.
Offline analysis: Samples were taken on most days and analyzed with a variety of equipment. Cell density and viability were measured using the standard technique of trypan blue exclusion using a Cedex (Roche Innovatis AG, Germany). Cell viability and growth rate of the various cultures were measured during the culture time course at specific days post-inoculation.
Anti alpha-synuclein CHO cells were transferred from glutamine-containing media to glutamine-free media using a 1:5 split ratio on Day 0.

[2] = system: mammalian cells expressing an immunoadhesin (DG44); assay: Transition of immunoadhesin-expressing cells from glutamine-containing to glutamine-free media: cell viability and growth rate (trypan blue exclusion, Cedex); assay type: cell-based; conditions: 2.5 μM corticosteroid in glutamine-free media; FIG. 3
Excerpt: Cell culture methods: Cells were thawed and maintained as in a previous report (Kshirsagar, et al. 2012 Biotechnol Bioeng, Huang, et al. Biotechnology Progress 26(5):1400-1410 (2010)). Basal medium for thaw and passing was the same as in previous reports (Kshirsagar/Huang).

| SMILES | toxicity (concentration-dependent response) ([1]; 500 μM supplementation compared to 100 μM supplementation) | viability during transition to glutamine-free media ([1]; HT 100 μM/16 μM, adenosine 500 μM or 100 μM, FIG. 7B) | transitional growth rate ([1]; transition to glutamine-free media, 1:5 split ratio, HT 100 μM/16 μM, adenosine 100 or 500 μM, FIG. 7A) | viability drop vs control condition [2] | viability recovery period [2] |
| --- | --- | --- | --- | --- | --- |
| Nc1ncnc2c1ncn2[C@@H]1O[C@H](CO)[C@@H](O)[C@H]1O [adenosine] | slightly toxic | maintains | boosted the transitional growth rate |  |  |
| C[C@]12CCC(=O)C=C1CC[C@@H]1[C@@H]2[C@@H](O)C[C@@]2(C)[C@H]1CC[C@]2(O)C(=O)CO [hydrocortisone] |  |  |  | prevented the sharp viability drop | shortened the viability recovery period |
| C[C@]12C=CC(=O)C=C1CC[C@@H]1[C@@H]2[C@@H](O)C[C@@]2(C)[C@H]1CC[C@]2(O)C(=O)CO [prednisolone] |  |  |  | prevented the sharp viability drop | shortened the viability recovery period |

Source: patent publication US12441980B2, “Methods for overcoming glutamine deprivation during mammalian cell culture” (priority 2014, dated 2025)
